Source: patent US20260347364A1, “PYRAZOLO[4,3-F]QUINAZOLINE DERIVATIVES AS MODULATORS OF G12D MUTANT KRAS USEFUL FOR THE TREATMENT OF CANCER” (JAZZ PHARMACEUTICALS IRELAND LTD., priority 2023, published 2026)

How the values were obtained:
KRAS WT = target: T1, KRAS WT (Homo sapiens, UniProt P01116); test: HTRF nucleotide exchange assay, KRAS WT; type: biochemical; conditions: class symbols; for IC50: HTRF nucleotide exchange assay (NEA)
T1 construct: aa1-188 KRAS WT

KRAS G12D = target: T2, KRAS G12D (Homo sapiens, UniProt P01116, G12D); test: HTRF nucleotide exchange assay, KRAS G12D; type: biochemical; conditions: HTRF nucleotide exchange assay (NEA), class symbols
T2 construct: aa1-188 KRAS WT, HRAS WT, NRAS WT, or KRAS containing the G12D
T2 sequence (P01116 1-188 isoform P01116-2 G12D): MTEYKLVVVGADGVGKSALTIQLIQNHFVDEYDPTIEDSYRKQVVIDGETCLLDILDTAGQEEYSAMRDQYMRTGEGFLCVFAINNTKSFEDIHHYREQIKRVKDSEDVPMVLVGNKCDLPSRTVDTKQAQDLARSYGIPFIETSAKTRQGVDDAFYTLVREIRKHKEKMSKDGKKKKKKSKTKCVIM

T1 sequence (P01116 1-188 isoform P01116-2): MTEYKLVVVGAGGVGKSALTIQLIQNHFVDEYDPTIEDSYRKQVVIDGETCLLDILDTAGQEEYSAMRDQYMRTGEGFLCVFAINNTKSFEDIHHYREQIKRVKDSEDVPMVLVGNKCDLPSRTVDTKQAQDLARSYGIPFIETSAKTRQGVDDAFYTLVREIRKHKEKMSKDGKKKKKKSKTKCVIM

Compound | IC50 (KRAS WT) [nM] | IC50 (KRAS G12D) [nM] | KRAS^WT NEA (KRAS WT)
C#Cc1c(F)ccc2cc(O)cc(-c3cc4nc(OC[C@@]56CCCN5C[C@H](F)C6)nc(N5CCOCC(C)(O)C5)c4c4cn(C)nc34)c12 (stereo partly drawn) [Example 11, 4-[4-(8-ethynyl-7-fluoro-3-hydroxy-1-naphthyl)-2-methyl-7-[[(2R,8S)-2-fluoro-1,2,3,5,6,7-hexahydropyrrolizin-8-yl]methoxy]pyrazolo[4,3-f]quinazolin-9-yl]-6-methyl-1,4-oxazepan-6-ol] | ≤ 10 | ≤ 10 | –
CCc1c(F)ccc2cc(O)cc(-c3c(F)c4nc(OC[C@]5(C)CCCN5)nc(N5CCOCC(C)(O)C5)c4c4cn(C)nc34)c12 (stereo partly drawn) [Example 159, 4-[4-(8-ethyl-7-fluoro-3-hydroxy-1-naphthyl)-5-fluoro-2-methyl-7-[[(2S)-2-methylpyrrolidin-2-yl]methoxy]pyrazolo[4,3-f]quinazolin-9-yl]-6-methyl-1,4-oxazepan-6-ol] | ≤ 10 | ≤ 10 | –
CCc1c(F)ccc2cc(O)cc(-c3cc4nc(OC[C@@H]5CCN5C)nc(N5CCCn6nc(C(=O)N(C)C)cc6C5)c4c4cn(C)nc34)c12 [Example 70] | 10 to 100 | ≤ 10 | –
CCc1c(F)ccc2cc(O)cc(-c3cc4nc(OC[C@@]56CCCN5C[C@H](F)C6)nc(N5CCCC6(CCO6)C5)c4c4cn(C)nc34)c12 (stereo partly drawn) [Example 125, 5-ethyl-6-fluoro-4-[2-methyl-9-(1-oxa-8-azaspiro[3.5]nonan-8-yl)-7-[[(2R,8S)-2-fluoro-1,2,3,5,6,7-hexahydropyrrolizin-8-yl]methoxy]pyrazolo[4,3-f]quinazolin-4-yl]naphthalen-2-ol] | 10 to 100 | 10 to 100 | –
CCc1c(F)ccc2cc(O)cc(-c3c(F)c4nc(OCC5(C)C[C@@H](O)CN5C)nc(N5CCOCC(C)(O)C5)c4c4cn(C)nc34)c12 (mixture of isomers) [Example 153, 4-[4-(8-ethyl-7-fluoro-3-hydroxy-1-naphthyl)-5-fluoro-2-methyl-7-[[rac-(4R)-4-hydroxy-1,2-dimethyl-pyrrolidin-2-yl]methoxy]pyrazolo[4,3-f]quinazolin-9-yl]-6-methyl-1,4-oxazepan-6-ol] | ≤ 10 | ≤ 10 | –
CCc1c(F)ccc2cc(O)cc(-c3c(F)c4nc(OCC5(CN6CC[C@@H](O)C6)CC5)nc(N5CCOCC(C)(O)C5)c4c4cn(C)nc34)c12 (stereo partly drawn) [Example 194, 4-[4-(8-ethyl-7-fluoro-3-hydroxy-1-naphthyl)-5-fluoro-2-methyl-7-[[1-[[(3R)-3-hydroxypyrrolidin-1-yl]methyl]cyclopropyl]methoxy]pyrazolo[4,3-f]quinazolin-9-yl]-6-methyl-1,4-oxazepan-6-ol] | ≤ 10 | ≤ 10 | –
Cn1cc2c(n1)c(-c1cc(O)ccc1OC(F)(F)F)cc1nc(OC[C@@]34CCCN3C[C@H](F)C4)nc(N3CCCOCC3)c12 [Example 38, 3-[2-methyl-9-(1,4-oxazepan-4-yl)-7-[[(2R,8S)-2-fluoro-1,2,3,5,6,7-hexahydropyrrolizin-8-yl]methoxy]pyrazolo[4,3-f]quinazolin-4-yl]-4-(trifluoromethoxy)phenol] | 100 to 10000 | 100 to 10000 | –
CCc1c(F)ccc2cc(O)cc(-c3c(F)c4nc(OCC5(CO)CC5)nc(N5CCOCC(C)(O)C5)c4c4cn(C)nc34)c12 (centres unmarked) [Example 188, 4-[4-(8-ethyl-7-fluoro-3-hydroxy-1-naphthyl)-5-fluoro-7-[[1-(hydroxymethyl)cyclopropyl]methoxy]-2-methyl-pyrazolo[4,3-f]quinazolin-9-yl]-6-methyl-1,4-oxazepan-6-ol] | ≤ 10 | ≤ 10 | –
CCc1c(F)ccc2cc(O)cc(-c3c(F)c4nc(OCC5(CN(C)CC(F)(F)F)CC5)nc(N5CCOCC(C)(O)C5)c4c4cn(C)nc34)c12 (centres unmarked) [Example 192, 4-[4-(8-ethyl-7-fluoro-3-hydroxy-1-naphthyl)-5-fluoro-2-methyl-7-[[1-[[methyl(2,2,2-trifluoroethyl)amino]methyl]cyclopropyl]methoxy]pyrazolo[4,3-f]quinazolin-9-yl]-6-methyl-1,4-oxazepan-6-ol] | – | 100 to 10000 | D (<49% inhibition at 10 μM)
CCc1c(F)ccc2cc(O)cc(-c3cc4nc(OC[C@@]56CCCN5C[C@H](F)C6)nc(N5CCC6CC6(O)C5)c4c4cn(C)nc34)c12 (stereo partly drawn) [Example 127, 3-[4-(8-ethyl-7-fluoro-3-hydroxy-1-naphthyl)-2-methyl-7-[[(2R,8S)-2-fluoro-1,2,3,5,6,7-hexahydropyrrolizin-8-yl]methoxy]pyrazolo[4,3-f]quinazolin-9-yl]-3-azabicyclo[4.1.0]heptan-1-ol] | 10 to 100 | 10 to 100 | –
CCc1c(F)ccc2cc(O)cc(-c3cc4nc(OC[C@@]56CCCN5C[C@H](F)C6)nc(N5CCCC6(CC(O)C6)C5)c4c4cn(C)nc34)c12 (stereo partly drawn) [Example 136, 6-[4-(8-ethyl-7-fluoro-3-hydroxy-1-naphthyl)-2-methyl-7-[[(2R,8S)-2-fluoro-1,2,3,5,6,7-hexahydropyrrolizin-8-yl]methoxy]pyrazolo[4,3-f]quinazolin-9-yl]-6-azaspiro[3.5]nonan-2-ol] | ≤ 10 | ≤ 10 | –
CCc1c(F)ccc2cc(O)cc(-c3cc4nc(OC[C@@]56CCCN5C[C@H](F)C6)nc(N5CCOCC(O)(C(F)(F)F)C5)c4c4cn(C)nc34)c12 (stereo partly drawn) [Example 123, 4-[4-(8-ethyl-7-fluoro-3-hydroxy-1-naphthyl)-2-methyl-7-[[(2R,8S)-2-fluoro-1,2,3,5,6,7-hexahydropyrrolizin-8-yl]methoxy]pyrazolo[4,3-f]quinazolin-9-yl]-6-(trifluoromethyl)-1,4-oxazepan-6-ol] | 10 to 100 | 10 to 100 | –
CCc1c(F)ccc2cc(O)cc(-c3cc4nc(OC[C@@]56CCCN5C[C@H](F)C6)nc(N5CCCn6nc(C#N)cc6C5)c4c4cn(C)nc34)c12 [Example 73, 5-[4-(8-ethyl-7-fluoro-3-hydroxy-1-naphthyl)-7-[[(2R,8S)-2-fluoro-1,2,3,5,6,7-hexahydropyrrolizin-8-yl]methoxy]-2-methyl-pyrazolo[4,3-f]quinazolin-9-yl]-4,6,7,8-tetrahydropyrazolo[1,5-a][1,4]diazepine-2-carbonitrile] | 10 to 100 | ≤ 10 | –
CCc1c(F)ccc2cc(O)cc(-c3c(F)c4nc(OCCC5CN(C)CCO5)nc(N5CCOCC(C)(O)C5)c4c4cn(C)nc34)c12 (centres unmarked) [Example 224, 4-[4-(8-ethyl-7-fluoro-3-hydroxy-1-naphthyl)-5-fluoro-2-methyl-7-[2-(4-methylmorpholin-2-yl)ethoxy]pyrazolo[4,3-f]quinazolin-9-yl]-6-methyl-1,4-oxazepan-6-ol] | 10 to 100 | ≤ 10 | –
CCc1c(F)ccc2cc(O)cc(-c3c(F)c4nc(OCC5(CN6CC[C@H](O)C6)CC5)nc(N5CCOCC(C)(O)C5)c4c4cn(C)nc34)c12 (stereo partly drawn) [Example 190, 4-[4-(8-ethyl-7-fluoro-3-hydroxy-1-naphthyl)-5-fluoro-2-methyl-7-[[1-[[(3S)-3-hydroxypyrrolidin-1-yl]methyl]cyclopropyl]methoxy]pyrazolo[4,3-f]quinazolin-9-yl]-6-methyl-1,4-oxazepan-6-ol] | ≤ 10 | ≤ 10 | –
CCc1c(F)ccc2cc(O)cc(-c3c(F)c4nc(OCC56COC(COC)(C5)C6)nc(N5CC6CCC(C5)N6)c4c4cn(C)nc34)c12 [Example 169, 4-[9-(3,8-diazabicyclo[3.2.1]octan-3-yl)-5-fluoro-7-[[1-(methoxymethyl)-2-oxabicyclo[2.1.1]hexan-4-yl]methoxy]-2-methyl-pyrazolo[4,3-f]quinazolin-4-yl]-5-ethyl-6-fluoro-naphthalen-2-ol] | 100 to 10000 | ≤ 10 | –
